Measured values: patent EP2508198B1, “Peptides for suppressing inflammation reactions in hemodialysis” (Fresenius Medical Care Deutschland GmbH, priority 2011, dated 2014)
Residues, ends and D or L forms follow the SMILES beside them.

Assays:
IL-6 = test: Whole blood from uremic patients stimulated ex vivo with LPS with or without peptides (non heated and heated), IL-6 ELISA; type: cell-based, human; conditions: whole blood of uremic patients, LPS 1 ng/ml, 24 h; average over the tested concentrations
Method: (§1) Whole blood studies with blood from uremic patients including heat sterilization experiments
(§2) A first goal of this experiment was to test whether the three amino acid antiinflammatory peptide KPV (unpegylated and pegylated version "monopeptide") will retain its activity under conditions of steam sterilization at 125°C for 15 min used in the production process of dialysis modules. A second goal was to study the anti-inflammatory effect of alpha-MSH and the peptides in uremic patients, which represent the real clinical situation.
(§3) To perform this experiment whole blood samples were taken from voluntary uremic patients (n=10) and subsequently stimulated ex vivo with lipopolysaccharide (LPS) with or without alpha-MSH, KPV or pegylated KPV (non heated and heated) and TNF-α and IL-6 release was determined by ELISA.
(§4) 25 ml blood from 10 uremic patients (dialysis patients treated at the hospital in Konstanz, Germany) was drawn and blood values were analyzed immediately. Blood was 1:10 diluted with PBS buffer and each stimulation condition was performed in triplicates and incubated at 200 µl in 96 well plates. […]

TNF-α = test: Whole blood from uremic patients stimulated ex vivo with LPS with or without peptides (non heated and heated), TNF-α ELISA; type: cell-based, human; conditions: whole blood of uremic patients, LPS 1 ng/ml, 24 h; average over the tested concentrations
Method: as §1, §2, §3, §4

[1] = test system: LPS-induced TNF-α release; test: Ex vivo stimulation of human PBMCs with LPS (pre-incubation or co-stimulation with peptides), TNF-α ELISA of supernatants; type: cell-based; design: TNF-α, Donor 2 / TNF-α, Donor 3 / TNF-α, Donor 4 / TNF-α, Donor 5 / TNF-α, Donor 6 / TNF-α, MV+SD: unit not given here; conditions: for TNF-α, %: % of LPS control c (100.00); for effect on LPS-induced TNF-α release ("inflammation"): pre-stimulation or co-incubation
Method: Ex vivo stimulation of human peripheral blood mononuclear cells (PBMCs)
For the stimulation of PBMCs the following concentrations were chosen: • LPS 1 ng/ml alone • α-MSH • ∘ 1µM; 10µM; 100µM • Peg-KPV (pegylated tripeptide) • ∘ 1µM; 10µM; 100µM; 1000µM
The stimulation procedure was as described below:
All cells were incubated for 24h and centrifuged at 1700 rpm and supernatants were used for TNF- α ELISA measurement according to manufacturer's protocols.

[2] = LPS 3 h pre-incubation, then LPS+peptide 24h, peptide 1 µM
[3] = LPS 3 h pre-incubation, then LPS+peptide 24h, peptide 10 µM
[4] = LPS 3 h pre-incubation, then LPS+peptide 24h, peptide 100 µM
[5] = LPS 3 h pre-incubation, then LPS+peptide 24h, peptide 1000 µM
[6] = LPS + peptide simultaneously, 24h, peptide 1 µM
[7] = LPS + peptide simultaneously, 24h, peptide 10 µM
[8] = LPS + peptide simultaneously, 24h, peptide 100 µM
[9] = LPS + peptide simultaneously, 24h, peptide 1000 µM
[10] = mean of donors, LPS 3 h pre-incubation, then LPS+peptide 24h, peptide 1 µM
[11] = mean of donors, LPS 3 h pre-incubation, then LPS+peptide 24h, peptide 10 µM
[12] = mean of donors, LPS 3 h pre-incubation, then LPS+peptide 24h, peptide 100 µM
[13] = mean of donors, LPS + peptide simultaneously, 24h, peptide 1 µM
[14] = mean of donors, LPS + peptide simultaneously, 24h, peptide 10 µM
[15] = mean of donors, LPS + peptide simultaneously, 24h, peptide 100 µM

In the case of `CC(=O)N[C@@H](CCCCN)C(=O)N1CCC[C@H]1C(=O)N[C@H](C(N)=O)C(C)C` [KPV, Ac-Lys-Pro-Val-NH2] (Ac-Lys-Pro-Val-NH2), the “average inhibition for IL-6” value (IL-6) was “around 20%”, the “average inhibition for TNF-α” value (TNF-α) was “around 30%” and the “TNF-α, %” value [1, 2] was 85.28%. The “TNF-α, %” value [1, 3] was 83.53%, the “TNF-α, %” value [1, 4] was 73.40% and the “TNF-α, %” value [1, 5] was 38.98%. The “TNF-α, %” value [1, 6] was 78.64%, the “TNF-α, %” value [1, 7] was 74.30% and the “TNF-α, %” value [1, 8] was 65.76%. The “TNF-α, %” value [1, 9] was 25.35%, the “TNF-α, Donor 2” value [1, 2] was 4025 and the “TNF-α, Donor 3” value [1, 2] was 4554. For the same compound, the “TNF-α, Donor 4” value [1, 2] was 3541, the “TNF-α, Donor 5” value [1, 2] was 2301 and the “TNF-α, Donor 6” value [1, 2] was 4299. For the same compound, the “TNF-α, Donor 2” value [1, 3] was 4126, the “TNF-α, Donor 3” value [1, 3] was 4387 and the “TNF-α, Donor 4” value [1, 3] was 3666. For the same compound, the “TNF-α, Donor 5” value [1, 3] was 2209, the “TNF-α, Donor 6” value [1, 3] was 3949 and the “TNF-α, Donor 2” value [1, 4] was 3542. For the same compound, the “TNF-α, Donor 3” value [1, 4] was 5022, the “TNF-α, Donor 4” value [1, 4] was 2886 and the “TNF-α, Donor 5” value [1, 4] was 1931. The “TNF-α, Donor 6” value [1, 4] was 3731, the “TNF-α, Donor 3” value [1, 5] was 1816 and the “TNF-α, Donor 4” value [1, 5] was 1494. For the same compound, the “TNF-α, Donor 5” value [1, 5] was 1054, the “TNF-α, Donor 6” value [1, 5] was 2482 and the “TNF-α, Donor 2” value [1, 6] was 3426. The “TNF-α, Donor 3” value [1, 6] was 3955, the “TNF-α, Donor 4” value [1, 6] was 3702 and the “TNF-α, Donor 5” value [1, 6] was 1893. For the same compound, the “TNF-α, Donor 6” value [1, 6] was 3541, the “TNF-α, Donor 2” value [1, 7] was 3154 and the “TNF-α, Donor 3” value [1, 7] was 3907. The “TNF-α, Donor 4” value [1, 7] was 3369, the “TNF-α, Donor 5” value [1, 7] was 1706 and the “TNF-α, Donor 6” value [1, 7] was 3470. The “TNF-α, Donor 2” value [1, 8] was 2562, the “TNF-α, Donor 3” value [1, 8] was 3505 and the “TNF-α, Donor 4” value [1, 8] was 3077. For the same compound, the “TNF-α, Donor 5” value [1, 8] was 1525, the “TNF-α, Donor 6” value [1, 8] was 3142 and the “TNF-α, Donor 3” value [1, 9] was 931. The “TNF-α, Donor 4” value [1, 9] was 934, the “TNF-α, Donor 5” value [1, 9] was 594 and the “TNF-α, Donor 6” value [1, 9] was 1801. The “TNF-α, MV+SD” value ([1]; mean of donors (Donor 2 not done), LPS 3 h pre-incubation, then LPS+peptide 24h, peptide 1000 µM) was 1711.5, the “TNF-α, MV+SD” value ([1]; mean of donors (Donor 2 not done), LPS + peptide simultaneously, 24h, peptide 1000 µM) was 1065 and the “TNF-α, MV+SD” value [1, 10] was 3744. For the same compound, the “TNF-α, MV+SD” value [1, 11] was 3667.4, the “TNF-α, MV+SD” value [1, 12] was 3222.4 and the “TNF-α, MV+SD” value [1, 13] was 3303.4. For the same compound, the “TNF-α, MV+SD” value [1, 14] was 3121.2, the “TNF-α, MV+SD” value [1, 15] was 2762.2 and the “effect on LPS-induced TNF-α release ("inflammation")” value [1] was “inhibitory effect”.

α-MSH [α-MSH Sigma] was tested, and the “TNF-α, %” value [1, 2] was 89.62%, the “TNF-α, %” value [1, 3] was 81.56% and the “TNF-α, %” value [1, 4] was 54.57%. For the same compound, the “TNF-α, %” value [1, 6] was 70.97%, the “TNF-α, %” value [1, 7] was 61.67% and the “TNF-α, %” value [1, 8] was 32.86%. The “TNF-α, Donor 2” value [1, 2] was 5005, the “TNF-α, Donor 3” value [1, 2] was 4345 and the “TNF-α, Donor 4” value [1, 2] was 3968. For the same compound, the “TNF-α, Donor 5” value [1, 2] was 2070, the “TNF-α, Donor 6” value [1, 2] was 4286 and the “TNF-α, Donor 2” value [1, 3] was 4193. For the same compound, the “TNF-α, Donor 3” value [1, 3] was 3883, the “TNF-α, Donor 4” value [1, 3] was 3674 and the “TNF-α, Donor 5” value [1, 3] was 1799. The “TNF-α, Donor 6” value [1, 3] was 4356, the “TNF-α, Donor 2” value [1, 4] was 3009 and the “TNF-α, Donor 3” value [1, 4] was 2886. For the same compound, the “TNF-α, Donor 4” value [1, 4] was 2073, the “TNF-α, Donor 5” value [1, 4] was 942 and the “TNF-α, Donor 6” value [1, 4] was 2069. For the same compound, the “TNF-α, Donor 2” value [1, 6] was 4098, the “TNF-α, Donor 3” value [1, 6] was 3273 and the “TNF-α, Donor 4” value [1, 6] was 3116. The “TNF-α, Donor 5” value [1, 6] was 1319, the “TNF-α, Donor 6” value [1, 6] was 3100 and the “TNF-α, Donor 2” value [1, 7] was 3734. For the same compound, the “TNF-α, Donor 3” value [1, 7] was 2776, the “TNF-α, Donor 4” value [1, 7] was 2568 and the “TNF-α, Donor 5” value [1, 7] was 1237. For the same compound, the “TNF-α, Donor 6” value [1, 7] was 2638, the “TNF-α, Donor 2” value [1, 8] was 1207 and the “TNF-α, Donor 3” value [1, 8] was 2337. For the same compound, the “TNF-α, Donor 4” value [1, 8] was 1248, the “TNF-α, Donor 5” value [1, 8] was 713 and the “TNF-α, Donor 6” value [1, 8] was 1386. For the same compound, the “TNF-α, MV+SD” value [1, 10] was 3934.8, the “TNF-α, MV+SD” value [1, 11] was 3581 and the “TNF-α, MV+SD” value [1, 12] was 2395.8. For the same compound, the “TNF-α, MV+SD” value [1, 13] was 2981.2, the “TNF-α, MV+SD” value [1, 14] was 2590.6 and the “TNF-α, MV+SD” value [1, 15] was 1380.2. The “effect on LPS-induced TNF-α release ("inflammation")” value [1] was “inhibitory effect”.
